Source: patent US8816088B2 (Theravance, Inc., priority 2009, dated 2014)
Where a name gives a salt, the structure may show the parent alone.

Each compound was assayed on MCh-induced bronchoconstriction (assay: Einthoven assay: bronchoprotection against methacholine (MCh)-induced bronchoconstriction). Conditions: Rattus norvegicus, inhaled or nasal, 24 h, read-out: Broncho. at 24 h, Bronchoprotective effect present at 24 h, 100 μg by inhalation, 24 h after administration.
Type: in vivo
Experimental: This assay measures the ability of a test compound to provide bronchoprotection against methacholine (MCh)-induced bronchoconstriction in a rat. Male Sprague-Dawley rats (Harlan, Indianapolis, Ind.), weighing between 200 g and 350 g, were used for all studies. Test compound or vehicle (sterile deionized water) were dosed by inhalation (1H) over a 10 min period in a pie shaped inhalation chamber (R+S Molds, San Carlos, Calif.) using 5 mL of dosing solution. […] Rats were dosed with 100 μg of test compound unless otherwise indicated. At predetermined time points, rats were anesthetized with an intraperitoneal (IP) injection of 120 mg/kg inactin (thiobutabarbital). A supplemental dose (40 mg/kg, IP) was administered if the animal responded to physical stimuli (e.g. toe pinch). The surgical site was shaved and a 1-2 cm midline incision of the ventral aspect of the neck was made. The jugular vein was isolated and cannulated with a saline-filled polyethylene catheter (PE-50) to allow IV infusion of MCh. Trachea was dissected free and cannulated with a 14G needle (#NE-014, Small Parts, Miami Lakes, Fla.). After placement of the tracheal cannula, each rat was ventilated using a respirator (Model 683, Harvard Apparatus, Inc., MA) set at a stroke volume of 1 mL/100 g body weight (but not exceeding 2.5 mL volume) and a rate of 90 strokes per minute. A T-connector was placed along the respirator expiratory tubing to allow for measurement of changes in ventilation pressure (VP) using a Biopac transducer that was connected to a Biopac […]) pre-amplifier. Body temperature was maintained at 37° C. using a heating pad. Changes in VP were recorded using the Acknowledge Data Collection Software (Santa Barbara, Calif.). Baseline values were collected for at least 2.5 min. Rats were then challenged with non-cumulative intravenous (IV) infusions of 40 and 80 μg/kg MCh. MCh was infused intravenously for 2.5 minutes from a syringe pump (sp210iw, World Precision Instruments, Inc., Sarasota, Fla.) at a rate of 2 mL/kg/min, with a 2 minute interval between the two doses of MCh. Changes in ventilation pressure (cm H2O) in treated animals are expressed as % inhibition of MCh response relative to control animals. Other bronchoconstrictors, such as histamine and acetylcholine, can be used in place of MCh in this assay. Additionally, guinea pigs can be used instead of rats. […] Inhibition greater than or equal to 30 percent at 24 h is indicative of a long duration of action.
With `Cc1cc(CNC[C@H](O)c2ccc(O)c3[nH]c(=O)ccc23)ccc1NC(=O)c1cccc(N(C)C(=O)CCN2CCC(OC(=O)Nc3ccccc3-c3ccccc3)CC2)c1` [Compound I-27, Biphenyl-2-ylcarbamic acid 1-(2-{[3-(4-{[(R)-2-hydroxy-2-(8-hydroxy-2-oxo-1,2-dihydroquinolin-5-yl)-ethylamino]methyl}-2-methylphenylcarbamoyl)phenyl]-methylcarbamoyl}ethyl)piperidin-4-yl ester ditrifluoroacetic acid salt] the inhibition in vivo at 0.1 mg was < 30%.
In the case of `C[C@@H](Cc1cccc(CC(=O)NCc2ccc(N(C)C(=O)CCN3CCC(OC(=O)Nc4ccccc4-c4ccccc4)CC3)cc2)c1)NC[C@H](O)c1ccc(O)c2[nH]c(=O)ccc12` [Compound I-79, ditrifluoroacetic acid salt], the inhibition in vivo at 0.1 mg is reported as < 30%.
In the case of `C[C@H](Cc1cccc(CC(=O)NCCCN(C)C(=O)CCN2CCC(OC(=O)Nc3ccccc3-c3ccccc3)CC2)c1)NC[C@H](O)c1ccc(O)c2[nH]c(=O)ccc12` [Compound I-12, Biphenyl-2-ylcarbamic acid 1-[2-({3-[2-(3-{(R)-2-[(R)-2-hydroxy-2-(8-hydroxy-2-oxo-1,2-dihydroquinolin-5-yl)ethylamino]propyl}phenyl)acetylamino]propyl}-methylcarbamoyl)ethyl]piperidin-4-yl ester ditrifluoroacetic acid salt], the inhibition in vivo at 0.1 mg is reported as < 30%.
With `CN(C(=O)CCN1CCC(OC(=O)Nc2ccccc2-c2ccccc2)CC1)c1cccc(C(=O)Nc2ccc(CCNC[C@H](O)c3ccc(O)c4[nH]c(=O)ccc34)cc2)c1` [Compound I-34, Ditrifluoroacetate] the inhibition in vivo at 0.1 mg was > 30%.
For `Cc1cc(NC(=O)c2cccc(N(C)C(=O)CCN3CCC(OC(=O)Nc4ccccc4-c4ccccc4)CC3)c2)c(C)cc1CNC[C@H](O)c1ccc(O)c2[nH]c(=O)ccc12` [Compound I-30, ditrifluoroacetic acid salt], the inhibition in vivo at 0.1 mg was < 30%.
